Patent publication US20260167656A1, “PHOSPHORAMIDATE COMPOUNDS AND USES THEREOF” (ALLORION THERAPEUTICS INC, priority 2022, published 2026)

What was measured:
[1] = test system: non-small cell lung cancer cell line H460; assay: In vitro human cancer cell line cytotoxicity (proliferation) assay in H460, CellTiter-Glo, 72 hours; type: cell-based; conditions: H460 cells, DMSO condition (no AKR1C3 inhibitor), read-out: CTG H460: Avg IC50 (nM) [Assay Condition: DMSO]
Outline: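 IC50s in nM come from CellTiter-Glo viability read after 72 h of compound exposure. Compounds went in from 10 mM DMSO stocks onto H460 cells, which had been plated at 3×10^3 per well and grown 24 h beforehand at 37 °C, 5% CO2.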

[2] = test system: non-small cell lung cancer cell line H460; assay: H460 proliferation assay in the presence of 3 uM ASP9521 (AKR1C3 specific inhibitor); type: cell-based, human; conditions: H460 cells, CellTiter-Glo, 72 hours, in the presence of 3 uM ASP9521 added 4 hours prior to compounds; read-out: CTG H460: Avg IC50 (nM) [Assay Condition: ASP9521]
Outline: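 AKR1C3 blocked with 3 uM ASP9521 given 4 h ahead of test compounds. H460 cells, plated 24 h earlier, were then treated for 72 h at 37 °C in 5% CO2. CellTiter-Glo luminescence gave viability.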

Compound	IC50 [1]	IC50 [2]	IC50 ([1]; Homo sapiens, NCI-H460, 72 h)
O=[N+]([O-])c1cc2c(cc1Oc1ccc(-c3ccc(F)cc3)c(F)c1)C(OP(=O)(N1CC1)N1CC1)CC2 (centres unmarked) [Example 514]	< 10 nM	993 nM	
O=[N+]([O-])c1cc2c(cc1Oc1ccc(-c3cccnc3)cc1)C(OP(=O)(N1CC1)N1CC1)CC2 (centres unmarked) [Example 515]	10 to 50 nM	7150 nM	
O=C(NC1CCC1)c1ccc(Oc2cc3c(cc2[N+](=O)[O-])CCC3OP(=O)(N2CC2)N2CC2)cc1 (centres unmarked) [Example 516]	< 10 nM	778 nM	
O=[N+]([O-])c1cc2c(cc1Oc1ccc(-c3ccccn3)cc1)C(OP(=O)(N1CC1)N1CC1)CC2 (centres unmarked) [Example 517]	< 10 nM	2050 nM	
O=[N+]([O-])c1cc2c(cc1Oc1ccc(-c3ccccc3)nc1)C(OP(=O)(N1CC1)N1CC1)CC2 (centres unmarked) [Example 518]	< 10 nM	746 nM	
O=[N+]([O-])c1cc2c(cc1Oc1ccc(-c3ccccn3)cc1)C(OP(=O)(N1CC1)N1CC1)CC2 (centres unmarked) [Example 523]	< 10 nM	2070 nM	
O=[N+]([O-])c1cc2c(cc1Oc1ccc(-c3ccccn3)cc1)C(OP(=O)(N1CC1)N1CC1)CC2 (centres unmarked) [Example 524]	< 10 nM	1190 nM	
O=C(NC1CCC1)c1ccc(Oc2cc3c(cc2[N+](=O)[O-])CC[C@H]3OP(=O)(N2CC2)N2CC2)cc1 [Example 526]	< 10 nM	661 nM	
O=[N+]([O-])c1cc2c(cc1Oc1ccc(-c3ccccc3)nc1)[C@@H](OP(=O)(N1CC1)N1CC1)CC2 [Example 527]	< 10 nM	1090 nM	
O=[N+]([O-])c1cc2c(cc1Oc1ccc(-c3ccccc3)nc1)[C@H](OP(=O)(N1CC1)N1CC1)CC2 [Example 528]	< 10 nM	880 nM	
O=C(c1cccc(Oc2cc3cc(COP(=O)(N4CC4)N4CC4)oc3cc2[N+](=O)[O-])c1)N1CCCC1 [Example 530, (6-nitro-5-(3-(pyrrolidine-1-carbonyl)phenoxy)benzofuran-2-yl)methyl di(aziridin-1-yl)phosphinate]		697 nM	< 10 nM
O=[N+]([O-])c1cc2oc(COP(=O)(N3CC3)N3CC3)cc2cc1Oc1cccc(-c2ccccc2)c1 [Example 534]		1200 nM	< 10 nM
O=C(c1cccc(Oc2cc3cc(COP(=O)(N4CC4)N4CC4)oc3cc2[N+](=O)[O-])c1)N1CCC1 [Example 535]		378 nM	< 10 nM
O=[N+]([O-])c1cc2oc(COP(=O)(N3CC3)N3CC3)cc2cc1Oc1cccc(-c2ccccn2)c1 [Example 536]		651 nM	< 10 nM
O=[N+]([O-])c1cc2oc(COP(=O)(N3CC3)N3CC3)cc2cc1Oc1cccc(-c2cccnc2)c1 [Example 537]		3710 nM	< 10 nM
O=[N+]([O-])c1cc2oc(COP(=O)(N3CC3)N3CC3)cc2cc1Oc1ccnc(-c2ccccc2)c1 [Example 538]		711 nM	< 10 nM
CNC(=O)c1cccc(Oc2cc3cc(C(C)OP(=O)(N4CC4)N4CC4)oc3cc2[N+](=O)[O-])c1 (centres unmarked) [Example 539]		2730 nM	< 10 nM
O=[N+]([O-])c1cc2oc(COP(=O)(N3CC3)N3CC3)cc2cc1Oc1ccc(-c2cccnc2)cc1 [Example 540]		1830 nM	< 10 nM
O=[N+]([O-])c1cc2oc(COP(=O)(N3CC3)N3CC3)cc2cc1Oc1cccc(OC(F)(F)F)c1 [Example 542]	< 10 nM	963 nM	
CC(OP(=O)(N1CC1)N1CC1)c1cc2cc(Oc3cccc(-c4ccccn4)c3)c([N+](=O)[O-])cc2o1 (centres unmarked) [Example 543]	< 10 nM	2230 nM	
CC(OP(=O)(N1CC1)N1CC1)c1cc2cc(Oc3cccc(C(=O)N4CCOCC4)c3)c([N+](=O)[O-])cc2o1 (centres unmarked) [Example 544]	10 to 50 nM	3490 nM	
O=C(c1cccc(Oc2cc3cc(COP(=O)(N4CC4)N4CC4)oc3cc2[N+](=O)[O-])c1)N1CCC(F)(F)C1 [Example 545]	< 10 nM	970 nM	
